We go through seven compounds from patent US11256170B2, “Compound, resist composition, and method for forming resist pattern using it” (Mitsubishi Gas Chemical Company, Inc., priority 2015, dated 2022).

This data set is described as follows: Safe solvent solubility test of compound. The format is physicochemical. Conditions: for Safe solvent CHN (solubility) / Safe solvent PGME (solubility) / Safe solvent PGMEA (solubility): 23° C., ultrasonic waves 30 minutes, visual; for solubility in safe solvents (in words): summary of Table 1. On the procedure:
The solubilities of the compound in CHN, PGME, and PGMEA were evaluated according to the following criteria utilizing the amount of dissolution in each solvent. The amount of dissolution was measured at 23° C. by precisely weighing the compound into a test tube, adding a subject solvent so as to attain a predetermined concentration, applying ultrasonic waves for 30 minutes in an ultrasonic cleaner, and visually observing the subsequent state of the fluid.
A: 5.0% by mass≤Amount of dissolution
B: 3.0% by mass≤Amount of dissolution<5.0% by mass
C: Amount of dissolution<3.0% by mass

As for `CC(C)(C)OC(=O)Oc1ccc2c3c(ccc2c1)Oc1ccc2cc(OC(=O)OC(C)(C)C)ccc2c1C3c1ccc(-c2ccccc2)cc1` [XBisN-1-BOC, reference compound], the “Safe solvent CHN (solubility)” value was “A (5.0% by mass≤Amount of dissolution)”, the “Safe solvent PGME (solubility)” value is “B (3.0% by mass≤Amount of dissolution<5.0% by mass)”, the “Safe solvent PGMEA (solubility)” value is reported as “A (5.0% by mass≤Amount of dissolution)” and the “solubility in safe solvents (in words)” value was “good solubility”.

As to `COc1cc(C2c3c(ccc4cc(OCC(=O)OC(C)(C)C)ccc34)Oc3ccc4cc(OCC(=O)OC(C)(C)C)ccc4c32)cc(I)c1OCC(=O)OC(C)(C)C` [Compound A-3-MeBOC], the “Safe solvent CHN (solubility)” value is given as “A (5.0% by mass≤Amount of dissolution)”, the “Safe solvent PGME (solubility)” value is on record as “A (5.0% by mass≤Amount of dissolution)”, the “Safe solvent PGMEA (solubility)” value is listed as “A (5.0% by mass≤Amount of dissolution)” and the “solubility in safe solvents (in words)” value is reported as “good solubility”.

In the case of `CC(C)(C)OC(=O)Oc1ccc2ccc3c(c2c1)C(c1cccc(I)c1)c1c(ccc2ccc(OC(=O)OC(C)(C)C)cc12)O3` [Compound B-1-BOC], the “Safe solvent CHN (solubility)” value is given as “A (5.0% by mass≤Amount of dissolution)”, the “Safe solvent PGME (solubility)” value was “A (5.0% by mass≤Amount of dissolution)”, the “Safe solvent PGMEA (solubility)” value is recorded as “A (5.0% by mass≤Amount of dissolution)” and the “solubility in safe solvents (in words)” value is “good solubility”.

`CC(C)(C)OC(=O)COc1ccc2c3c(ccc2c1)Oc1ccc2cc(OCC(=O)OC(C)(C)C)ccc2c1C3c1cccc(I)c1` [Compound A-1-MeBOC]: the “Safe solvent CHN (solubility)” value is “A (5.0% by mass≤Amount of dissolution)”, the “Safe solvent PGME (solubility)” value was “A (5.0% by mass≤Amount of dissolution)”, the “Safe solvent PGMEA (solubility)” value was “A (5.0% by mass≤Amount of dissolution)” and the “solubility in safe solvents (in words)” value is “good solubility”.

Take `CC(C)(C)OC(=O)OCc1ccc2ccc3c(c2c1)C(c1cccc(I)c1)c1c(ccc2ccc(COC(=O)OC(C)(C)C)cc12)O3` [Compound B-1-MeBOC]: the “Safe solvent CHN (solubility)” value is on record as “A (5.0% by mass≤Amount of dissolution)”, the “Safe solvent PGME (solubility)” value is on record as “A (5.0% by mass≤Amount of dissolution)”, the “Safe solvent PGMEA (solubility)” value is listed as “A (5.0% by mass≤Amount of dissolution)” and the “solubility in safe solvents (in words)” value is “good solubility”.

In the case of `CC(C)(C)OC(=O)Oc1ccc2c3c(ccc2c1)Oc1ccc2cc(OC(=O)OC(C)(C)C)ccc2c1C3c1cccc(I)c1` [Compound A-1-BOC], the “Safe solvent CHN (solubility)” value was “A (5.0% by mass≤Amount of dissolution)”, the “Safe solvent PGME (solubility)” value is “A (5.0% by mass≤Amount of dissolution)”, the “Safe solvent PGMEA (solubility)” value is recorded as “A (5.0% by mass≤Amount of dissolution)” and the “solubility in safe solvents (in words)” value was “good solubility”.

Consider `COc1cc(C2c3c(ccc4cc(OC(=O)OC(C)(C)C)ccc34)Oc3ccc4cc(OC(=O)OC(C)(C)C)ccc4c32)cc(I)c1OC(=O)OC(C)(C)C` [Compound A-3-BOC], for which the “Safe solvent CHN (solubility)” value is on record as “A (5.0% by mass≤Amount of dissolution)”, the “Safe solvent PGME (solubility)” value is recorded as “A (5.0% by mass≤Amount of dissolution)”, the “Safe solvent PGMEA (solubility)” value is on record as “B (3.0% by mass≤Amount of dissolution<5.0% by mass)” and the “solubility in safe solvents (in words)” value is “good solubility”.
